In publication PMC12106395, “HmuY proteins of the Porphyromonas genus show diversity in heme-binding properties” (Frontiers in Cellular and Infection Microbiology, 2025):

Columns and labels:
HusA^Pg = biological target: T1, HusA^Pg (Porphyromonas gingivalis, UniProt Q7MSY3); assay: UV-visible difference absorbance spectroscopy; format: binding; conditions: 5 uM protein, 5 uM PPIX, PBS pH 7.4, room temperature; complex seen by spectroscopy only
T1 construct: gene PG_2227; 8xHis-MBP tag cut off with Factor Xa; E. coli host; strain of the plasmid only in supplement (W83 is the BLAST query strain)

HmuY^Bf-2 = biological target: T2, HmuY^Bf-2 (Bacteroides fragilis, UniProt Q5LGH3); assay: UV-visible difference absorbance spectroscopy; semi-denaturing PAGE with fluorescence detection; format: binding; conditions: 5 uM protein, 5 uM PPIX, PBS pH 7.4, room temperature
T2 construct: gene BF9343_0985; 8xHis-MBP tag cut off with Factor Xa; E. coli host
T2 sequence (Q5LGH3 entry or part of it): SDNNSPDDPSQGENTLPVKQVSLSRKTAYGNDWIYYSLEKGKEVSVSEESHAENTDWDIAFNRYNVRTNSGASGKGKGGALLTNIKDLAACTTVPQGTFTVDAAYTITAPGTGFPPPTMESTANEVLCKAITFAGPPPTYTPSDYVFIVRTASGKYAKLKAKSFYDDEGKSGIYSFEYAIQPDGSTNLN

T1 sequence (Q7MSY3 entry or part of it): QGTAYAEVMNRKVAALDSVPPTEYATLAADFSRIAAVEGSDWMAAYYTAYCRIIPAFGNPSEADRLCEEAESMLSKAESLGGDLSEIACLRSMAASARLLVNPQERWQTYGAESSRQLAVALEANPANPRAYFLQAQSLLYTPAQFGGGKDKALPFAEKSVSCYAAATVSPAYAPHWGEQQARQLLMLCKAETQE

## C=CC1=C(C)c2cc3[nH]c(cc4nc(cc5[nH]c(cc1n2)c(C)c5CCC(=O)O)C(CCC(=O)O)=C4C)c(C)c3C=C [PPIX]
HusA^Pg
  UV-visible difference absorbance spectroscopy: HmuY^Bf-2, which, similar to HusA^Pg, binds both heme and PPIX
HmuY^Bf-2
  UV-visible difference absorbance spectroscopy; semi-denaturing PAGE with fluores: PPIX binding by HmuY^Bf-2 were detected after electrophoretic separation of proteins and porphyrins
